For twelve molecules, Ki results are on record in patent publication US8623863B2, “Disubstituted azepan orexin receptor antagonists” (Merck Sharp & Dohme Corp., priority 2008, dated 2014).

Molecules are shown by their SMILES.

The target in this assay is orexin-2 receptor (OX2R) (Homo sapiens (Human), UniProt O43614). The experiment in a line: radioligand binding assay, OX2R. The note with it: membranes prepared from CHO cells expressing the orexin-2 (OX2) receptor. The protocol:
The utility of the compounds in accordance with the present invention as orexin receptor OX1R and/or OX2R antagonists may be readily determined without undue experimentation by methodology well known in the art, including the “FLIPR Ca^2+ Flux Assay” (Okumura et al., Biochem. Biophys. Res. Comm. 280:976-981, 2001). In a typical experiment the OX1 and OX2 receptor antagonistic activity of the compounds of the present invention was determined in accordance with the following experimental method. For intracellular calcium measurements, Chinese hamster ovary (CHO) cells expressing the rat OX1 receptor or the human OX2 receptor, are grown in Iscove's modified DMEM containing 2 mM L-glutamine, […], 1% hypoxanthine-thymidine supplement, 100 U/ml penicillin, 100 ug/ml streptomycin and 10% heat-inactivated fetal calf serum (FCS). The cells are seeded at 20,000 cells/well into Becton-Dickinson black 384-well clear bottom sterile plates coated with poly-D-lysine. All reagents were from GIBCO-Invitrogen Corp. The seeded plates are incubated overnight at 37° C. and 5% CO2. Ala-6,12 human orexin-A as the agonist is prepared as a 1 mM stock solution in 1% bovine serum albumin (BSA) and diluted in assay buffer (HBSS containing 20 mM HEPES, 0.1% BSA and 2.5 mM probenecid, pH7.4) for use in the assay at a final concentration of 70 pM. Test compounds are prepared as 10 mM stock solution in DMSO, then diluted in 384-well plates, first in DMSO, then assay buffer. On the day of the assay, cells are washed 3 times with 100 ul assay buffer and then incubated for 60 min (37° C., 5% CO2) in 60 ul assay buffer containing 1 uM Fluo-4AM ester, 0.02% pluronic acid, and 1% BSA. The dye loading solution is then aspirated and cells are washed 3 times with 100 ul assay buffer. 30 ul of that same buffer is left in each well. Within the Fluorescent Imaging Plate Reader (FLIPR, Molecular Devices), test compounds are added to the plate in a volume of 25 ul, incubated for 5 min and finally 25 ul of agonist is added. Fluorescence is measured for each well at 1 second intervals for 5 minutes and the height of each fluorescence peak is compared to the height of the fluorescence peak induced by 70 pM Ala-6,12 orexin-A with buffer in place of antagonist. For each antagonist, IC50 value (the concentration of compound needed to inhibit 50% of the agonist response) is determined. Alternatively, compound potency can be assessed by a radioligand binding assay (described in Bergman et. al. Bioorg. Med. Chem. Lett. 2008, 18, 1425-1430) in which the inhibition constant (Ki) is determined in membranes prepared from CHO cells expressing either the orexin-1 (OX1) or orexin-2 (OX2) receptor. The intrinsic orexin receptor antagonist activity of a compound which may be used in the present invention may be determined by these assays.

Chain of orexin-2 receptor (OX2R) (O43614 whole entry): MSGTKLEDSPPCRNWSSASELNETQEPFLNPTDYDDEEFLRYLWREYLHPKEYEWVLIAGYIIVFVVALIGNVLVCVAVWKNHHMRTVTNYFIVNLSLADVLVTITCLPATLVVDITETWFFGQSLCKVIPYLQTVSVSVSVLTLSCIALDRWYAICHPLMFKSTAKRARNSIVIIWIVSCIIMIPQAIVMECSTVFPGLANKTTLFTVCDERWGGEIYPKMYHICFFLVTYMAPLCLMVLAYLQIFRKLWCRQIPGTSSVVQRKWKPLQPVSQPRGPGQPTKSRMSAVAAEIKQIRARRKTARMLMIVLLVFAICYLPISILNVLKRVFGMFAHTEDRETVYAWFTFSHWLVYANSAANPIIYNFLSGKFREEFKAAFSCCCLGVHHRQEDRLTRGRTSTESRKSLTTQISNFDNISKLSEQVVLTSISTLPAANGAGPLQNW

With `Cc1ccc(-c2nccs2)c(C(=O)N2CC(COc3ccc(F)cn3)CCCC2C)c1` (stereo not drawn) [3-5, 6-{[(5-fluoropyridin-2-yl)oxy]methyl}-2-methyl-1-[5-methyl-2-(1,3-thiazol-2-yl)benzoyl]azepane], the Ki (in general, the equilibrium dissociation constant of an inhibitor or competing ligand from its target) amounted to 3.8 nM.

Consider `Cc1ccc(-c2ncccn2)c(C(=O)N2CC(COc3ccc(F)c(C)c3)CCCC2C)c1` (stereo not drawn) [3-3, 6-[(4-fluoro-3-methylphenoxy)methyl]-2-methyl-1-(5-methyl-2-pyrimidin-2-ylbenzoyl)azepane], for which the affinity, expressed as Ki, was 10 nM.

For `Cc1cc(OCC2COCC(C)N(C(=O)c3ccccc3-n3nccn3)C2)ccc1F` (stereo not drawn) [4-9, 6-[(4-fluoro-3-methylphenoxy)methyl]-3-methyl-4-[2-(2H-1,2,3-triazol-2-yl)benzoyl]-1,4-oxazepane], the Ki amounted to 11 nM.

On to `CC1CCCC(COc2ccc(F)cn2)CN1C(=O)c1ccccc1-n1nccn1` (stereo not drawn) [2-11, 6-{[(5-fluoropyridin-2-yl)oxy]methyl}-2-methyl-1-[2-(2H-1,2,3-triazol-2-yl)benzoyl]azepane], for which the Ki was 28 nM. This Ki is about 2.5-fold higher than that of the molecule before.

Regarding `Cc1ccc(-c2ncccn2)c(C(=O)N2CC(COc3ccc(F)cn3)CCCC2C)c1` (stereo not drawn) [3-6, 6-{[(5-fluoropyridin-2-yl)oxy]methyl}-2-methyl-1-(5-methyl-2-pyrimidin-2-ylbenzoyl)azepane], the inhibitory constant (Ki) was 14 nM.

For `Cc1cc(OCC2CCCC(C)N(C(=O)c3ccccc3-n3nccn3)C2)ccc1F` (stereo not drawn) [2-9, 6-[(4-fluoro-3-methylphenoxy)methyl]-2-methyl-1-[2-(2H-1,2,3-triazol-2-yl)benzoyl]azepane], the Ki is 10 nM.

`Cc1ccc(-n2nccn2)c(C(=O)N2CC(COc3ccc(F)cn3)CCCC2C)c1` (stereo not drawn) [2-10, 6-{[(5-fluoropyridin-2-yl)oxy]methyl}-2-methyl-1-[5-methyl-2-(2H-1,2,3-triazol-2-yl)benzoyl]azepane] registered a Ki of 9.7 nM.

In turn, `Cc1ccc(-n2nccn2)c(C(=O)N2CC(COc3ccc(F)c(C)c3)CCCC2C)c1` (stereo not drawn) [2-8, 6-[(4-fluoro-3-methylphenoxy)methyl]-2-methyl-1-[5-methyl-2-(2H-1,2,3-triazol-2-yl)benzoyl]azepane] had an inhibition constant (Ki) of 3.3 nM.

Molecule `Cc1ccc(-c2nccs2)c(C(=O)N2CC(COc3ccc(F)c(C)c3)CCCC2C)c1` (stereo not drawn) [3-2, 6-[(4-fluoro-3-methylphenoxy)methyl]-2-methyl-1-[5-methyl-2-(1,3-thiazol-2-yl)benzoyl]azepane] showed an inhibitory constant (Ki) of 4.2 nM.

Take `Cc1ccc(-n2nccn2)c(C(=O)N2CC(COc3ccc(F)c(C)c3)COCC2C)c1` (stereo not drawn) [4-8, 6-[(4-fluoro-3-methylphenoxy)methyl]-3-methyl-4-[5-methyl-2-(2H-1,2,3-triazol-2-yl)benzoyl]-1,4-oxazepane]: the Ki amounted to 8.7 nM.

Molecule `Cc1ccc(-c2ncco2)c(C(=O)N2CC(COc3ccc(F)cn3)CCCC2C)c1` (stereo not drawn) [3-4, 6-{[(5-fluoropyridin-2-yl)oxy]methyl}-2-methyl-1-[5-methyl-2-(1,3-oxazol-2-yl)benzoyl]azepane] registered a Ki of 13 nM.

As to `Cc1ccc(-n2nccn2)c(C(=O)N2CCCCC(COc3ccc(F)c(C)c3)C2)c1` (stereo not drawn) [1-8, 3-[(4-Fluoro-3-methylphenoxy)methyl]-1-[5-methyl-2-(2H-1,2,3-triazol-2-yl)benzoyl]azepane], the affinity corresponds to a Ki of 7.9 nM.
